Measurements reported in US6013809A, “Substituted heterocyclic benzocycloalkenes and the use thereof as substances having an analgesic effect” (Gruenenthal GmbH, priority 1997, dated 2000).
Where a name gives a salt, the structure may show the parent alone. Read-outs that look alike come from different tables or passages of the source.

Legend:
[1] = target: T1, δ-opiate receptor (Rattus norvegicus, UniProt P33533); assay: δ-opiate receptor binding, displacement of (^3H)-2-D-Ala-deltorphin II on rat brain homogenates; set-up: species or system rat (male Wistar rats)
T1 construct: freshly prepared rat brain was homogenised in 50 mmoles/l Tris-HCl (pH 7.4); from tissue; host or cells: rat brain without cerebellum, pons and medulla oblongata, male Wistar rats; membrane homogenate
T1 sequence (P33533 whole entry): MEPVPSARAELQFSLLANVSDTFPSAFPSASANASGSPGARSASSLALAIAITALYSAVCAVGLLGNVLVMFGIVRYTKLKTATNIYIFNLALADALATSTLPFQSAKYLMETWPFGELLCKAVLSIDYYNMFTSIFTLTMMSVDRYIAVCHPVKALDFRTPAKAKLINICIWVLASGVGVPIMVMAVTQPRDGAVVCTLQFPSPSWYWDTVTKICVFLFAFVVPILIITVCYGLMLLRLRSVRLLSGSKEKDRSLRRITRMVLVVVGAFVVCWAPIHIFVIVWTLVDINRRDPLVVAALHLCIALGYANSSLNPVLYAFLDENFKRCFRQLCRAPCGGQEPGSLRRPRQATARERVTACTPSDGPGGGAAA
Description: Investigations for determining the affinity of compounds of formula I according to the invention for the δ-opiate receptor, which is a crucial prerequisite for analgesic properties, were performed on […] homogenates (rat brain homogenates, without the cerebellum, pons and medulla oblongata, from male Wistar rats). Selected compounds of formula I were used for the detection of δ-opiate receptor properties.
For this purpose, freshly prepared rat brain was homogenised in 50 mmoles/l Tris-HCl (pH 7.4) whilst cooling in ice, and was centrifuged for 10 minutes at 5000 g. After decanting and discarding the supernatant liquor, and renewed take-up and homogenisation of the membrane sediment in 50 mmoles/l Tris-HCl (pH 7.4), the homogenate was subsequently centrifuged for 20 minutes at 20,000 g and 4° C. This washing step was repeated once more. Thereafter, the supernatant liquor was decanted and the membrane sediment was homogenised in cold 50 mmoles/l Tris-HCl, 20% glycerol (w/v), 0.01% bacitracin (w/v) (pH 7.4) and was frozen in aliquots until testing was performed.
For the receptor binding tests, the aliquots were thawed out and diluted 1:10 with the binding test buffer.
The buffer used in the binding test comprised 50 mmoles/l Tris-HCl, 5 mmoles/l MgCl (pH 7.4), supplemented with 0.1% (w/v) bovine serum albumin. […] (^3 H)-2-D-Ala-deltorphin II was used as the radioactive ligand. The proportion of non-specific binding was determined in the presence of 10 mmoles/l naloxon.
The compounds according to the invention were added to further batches in series of concentrations and the displacement of the radioactive ligand from its specific binding site was determined. The respective triple batches were incubated for 90 minutes at 37° C. and were subsequently harvested by means of filtration through glass fibre filters (GF/B) for the determination of the radioactive ligand bound to the membrane homogenate. The radioactivity of the glass fibre filter discs was measured in a β-counter after adding a scintillator.
The affinity of the compounds according to the invention for the δ-opiate receptor was calculated as the IC50 according to the law of mass action by means of nonlinear regression. The K values in Table 1 are given as the mean value±the standard deviation from three mutually independent tests.

[2] = system: cancer patients; conditions: intrathecal, cancer patients on whom morphine no longer had an analgesic effect; cited from earlier work
[3] = 90 minutes at 37° C., pH 7.4, mean value ± standard deviation from three independent tests, read-out: δ-opiate receptor binding Ki
[4] = meaning of the second figure not stated, read-out: δ-opiate receptor binding Ki, second unlabelled figure printed behind the mean ± standard deviation

| Compound | Ki [1, 3] [nM] | Ki [1, 4] [nM] | analgesic effect [2] |
| --- | --- | --- | --- |
| CN(C)CC1=C(c2cccc(O)c2)c2ccccc2SCC1 [Example 1, 3-(4-dimethylaminomethyl-2,3-dihydro-benzo[b]thiepin-5-yl)-phenol hydrochloride] | 10.2 ± 4.5 | – | – |
| COc1ccc2c(c1)OCCC(CN(C)C)=C2c1cccc(O)c1 [Example 2g, 3-(4-dimethylaminomethyl-8-methoxy-2,3-dihydrobenzo[b]oxepin-5-yl)-phenol hydrochloride] | 6.19 | 6.01 | – |
| CN(C)CC1=C(c2cccc(O)c2)c2ccc3c(c2OC1)OCCO3 [Example 2d, 3-(7-dimethylaminomethyl-2,3-dihydro-6H-1,4,5,-trioxa-phenanthren-8-yl)-phenol hydrochloride] | 18.4 ± 1.6 | – | – |
| D-alanine^2 -D-leucine^5 enkeplialin [DADL] | – | – | long-lasting analgesic effect |
| CN(C)CC1=C(c2cccc(O)c2)c2ccccc2OCC1 [Example 2e, 3-(4-dimethylaminomethyl-2,3-dihydro-benzo[b]oxepin-5-yl)-phenol hydrochloride] | 8.5 ± 3 | – | – |
| COc1ccc2c(c1)[S+]([O-])CCC(CN(C)C)=C2c1cccc(O)c1 (centres unmarked) [Example 9a, 3-(4-dimethylaminomethyl-8-methoxy-1-oxo-2,3-dihydro-1H-1-2-4-benzo[b]thiepin-5-yl)-phenol hydrochloride] | 1.75 | – | – |
| CN(C)CC1=C(c2cccc(O)c2)c2ccc(O)cc2SCC1 [Example 11b, 4-dimethylaminomethyl-5-(3-hydroxy-phenyl)-2,3-dihydro-benzo[b]thiepin-8-ol hydrochloride] | 6.43 | 6.71 | – |
| CN(C)CC1=C(c2cccc(O)c2)c2ccccc2OC1 [Example 7, 3-(3-dimethylaminomethyl-2H-chromen-4-yl)-phenol hydrochloride] | 68.4 ± 8.4 | – | – |
| CN(C)CC1=C(c2cccc(O)c2)c2cc(O)ccc2OC1(C)C [Example 8, 3-dimethylaminomethyl-4-(3-hydroxy-phenyl)-2,2-di-methyl-2H-chromen-6-ol hydrochloride] | 393 ± 46 | – | – |
| CN(C)CC1=C(c2cccc(O)c2)c2ccc3ccccc3c2OC1 [Example 2b, 3-(3-dimethylaminomethyl-2H-benzo[b]chromen-4-yl-phenol hydrochloride] | 348 ± 65 | – | – |
| CN(C)CC1=C(c2cccc(O)c2)c2ccccc2SC1 [Example 5, 3-(3-dimethylaminomethyl-2H-thiochromen-4-yl)-phenol hydrochloride] | 68.2 ± 10.1 | – | – |
| CN(C)CC1=C(c2cccc(O)c2)c2ccc3ccccc3c2SC1 [Example 2c, 3-(2-dimethylaminomethyl-3H-4-thiaphenanthren-1-yl)-phenol hydrochloride] | 137 ± 13 | – | – |
| CN(C)CC1=C(c2cccc(O)c2)c2ccccc2[S+]([O-])CC1 (racemic) [Example 3, 3-(4-dimethylaminomethyl-1-oxo-2,3-dihydro-1H-1λ^4-benzo[b]thiepin-5-yl)-phenol hydrochloride] | 2.1 ± 0.13 | – | – |
| COc1ccc2c(c1)SCCC(CN(C)C)=C2c1cccc(O)c1 [Example 2h, 3-(4-dimethylaminomethyl-8-methoxy-2,3-dihydrobenzo[b]thiepin-5-yl)-phenolhydrochloride] | 2.67 | 1.76 | – |
